{"source": "ChEMBL document CHEMBL2429864", "about": "“Synthesis and antimicrobial evaluation of 1,3,4-oxadiazole-based chalcone derivatives” (2013)", "type_in_all_cases": "functional", "key": {"Aspergillus niger": {"test_system": "Aspergillus niger", "assay": "Antifungal activity against Aspergillus niger ATCC 1015"}, "Escherichia coli": {"test_system": "Escherichia coli", "assay": "Antibacterial activity against Escherichia coli ATCC 25922 by micro dilution/broth titre method"}, "Pseudomonas aeruginosa": {"test_system": "Pseudomonas aeruginosa", "assay": "Antibacterial activity against Pseudomonas aeruginosa ATCC 27853 by micro dilution/broth titre method"}, "Enterococcus faecalis": {"test_system": "Enterococcus faecalis", "assay": "Antibacterial activity against Enterococcus faecalis ATCC 29212 by micro dilution/broth titre method"}, "Staphylococcus aureus": {"test_system": "Staphylococcus aureus", "assay": "Antibacterial activity against Staphylococcus aureus ATCC 25923 by micro dilution/broth titre method"}, "Candida albicans": {"test_system": "Candida albicans", "assay": "Antifungal activity against Candida albicans ATCC 10231"}}}
{"smiles": "CN(C)c1ccc(/C=C\\C(=O)c2ccc(NC(=O)CSc3nnc(-c4cccc([N+](=O)[O-])c4)o3)cc2)cc1", "values": [{"measurement": "MIC", "setting": "Aspergillus niger", "value": 125, "unit": "µg/mL"}, {"measurement": "MIC", "setting": "Escherichia coli", "value": 31.2, "unit": "µg/mL"}, {"measurement": "MIC", "setting": "Pseudomonas aeruginosa", "value": 62.5, "unit": "µg/mL"}, {"measurement": "MIC", "setting": "Enterococcus faecalis", "value": 125, "unit": "µg/mL"}, {"measurement": "MIC", "setting": "Staphylococcus aureus", "value": 31.2, "unit": "µg/mL"}, {"measurement": "MIC", "setting": "Candida albicans", "value": 62.5, "unit": "µg/mL"}]}
{"smiles": "O=C(CSc1nnc(-c2cccc([N+](=O)[O-])c2)o1)Nc1ccc(C(=O)/C=C\\c2ccccc2O)cc1", "values": [{"measurement": "MIC", "setting": "Aspergillus niger", "value": 125, "unit": "µg/mL"}, {"measurement": "MIC", "setting": "Escherichia coli", "value": 62.5, "unit": "µg/mL"}, {"measurement": "MIC", "setting": "Pseudomonas aeruginosa", "value": 62.5, "unit": "µg/mL"}, {"measurement": "MIC", "setting": "Enterococcus faecalis", "value": 125, "unit": "µg/mL"}, {"measurement": "MIC", "setting": "Staphylococcus aureus", "value": 62.5, "unit": "µg/mL"}, {"measurement": "MIC", "setting": "Candida albicans", "value": 125, "unit": "µg/mL"}]}
{"smiles": "COc1ccc(/C=C\\C(=O)c2ccc(NC(=O)CSc3nnc(-c4cccc([N+](=O)[O-])c4)o3)cc2)cc1", "values": [{"measurement": "MIC", "setting": "Aspergillus niger", "value": 125, "unit": "µg/mL"}, {"measurement": "MIC", "setting": "Escherichia coli", "value": 62.5, "unit": "µg/mL"}, {"measurement": "MIC", "setting": "Pseudomonas aeruginosa", "value": 62.5, "unit": "µg/mL"}, {"measurement": "MIC", "setting": "Enterococcus faecalis", "value": 125, "unit": "µg/mL"}, {"measurement": "MIC", "setting": "Staphylococcus aureus", "value": 62.5, "unit": "µg/mL"}, {"measurement": "MIC", "setting": "Candida albicans", "value": 125, "unit": "µg/mL"}]}
{"smiles": "COc1ccc(OC)c(/C=C\\C(=O)c2ccc(NC(=O)CSc3nnc(-c4cccc([N+](=O)[O-])c4)o3)cc2)c1", "values": [{"measurement": "MIC", "setting": "Aspergillus niger", "value": 125, "unit": "µg/mL"}, {"measurement": "MIC", "setting": "Escherichia coli", "value": 62.5, "unit": "µg/mL"}, {"measurement": "MIC", "setting": "Pseudomonas aeruginosa", "value": 62.5, "unit": "µg/mL"}, {"measurement": "MIC", "setting": "Enterococcus faecalis", "value": 125, "unit": "µg/mL"}, {"measurement": "MIC", "setting": "Staphylococcus aureus", "value": 62.5, "unit": "µg/mL"}, {"measurement": "MIC", "setting": "Candida albicans", "value": 125, "unit": "µg/mL"}]}
{"smiles": "O=C(CSc1nnc(-c2cccc([N+](=O)[O-])c2)o1)Nc1ccc(C(=O)/C=C\\c2c(O)ccc3ccccc23)cc1", "values": [{"measurement": "MIC", "setting": "Aspergillus niger", "value": 62.5, "unit": "µg/mL"}, {"measurement": "MIC", "setting": "Escherichia coli", "value": 62.5, "unit": "µg/mL"}, {"measurement": "MIC", "setting": "Pseudomonas aeruginosa", "value": 62.5, "unit": "µg/mL"}, {"measurement": "MIC", "setting": "Enterococcus faecalis", "value": 62.5, "unit": "µg/mL"}, {"measurement": "MIC", "setting": "Staphylococcus aureus", "value": 62.5, "unit": "µg/mL"}, {"measurement": "MIC", "setting": "Candida albicans", "value": 62.5, "unit": "µg/mL"}]}
{"smiles": "O=C(CSc1nnc(-c2cccc([N+](=O)[O-])c2)o1)Nc1ccc(C(=O)/C=C\\c2ccc(Cl)cc2)cc1", "values": [{"measurement": "MIC", "setting": "Aspergillus niger", "value": 62.5, "unit": "µg/mL"}, {"measurement": "MIC", "setting": "Escherichia coli", "value": 62.5, "unit": "µg/mL"}, {"measurement": "MIC", "setting": "Pseudomonas aeruginosa", "value": 31.2, "unit": "µg/mL"}, {"measurement": "MIC", "setting": "Enterococcus faecalis", "value": 62.5, "unit": "µg/mL"}, {"measurement": "MIC", "setting": "Staphylococcus aureus", "value": 62.5, "unit": "µg/mL"}, {"measurement": "MIC", "setting": "Candida albicans", "value": 62.5, "unit": "µg/mL"}]}
{"smiles": "O=C(CSc1nnc(-c2cccc([N+](=O)[O-])c2)o1)Nc1ccc(C(=O)/C=C\\c2ccc(O)cc2)cc1", "values": [{"measurement": "MIC", "setting": "Aspergillus niger", "value": 62.5, "unit": "µg/mL"}, {"measurement": "MIC", "setting": "Escherichia coli", "value": 31.2, "unit": "µg/mL"}, {"measurement": "MIC", "setting": "Pseudomonas aeruginosa", "value": 31.2, "unit": "µg/mL"}, {"measurement": "MIC", "setting": "Enterococcus faecalis", "value": 125, "unit": "µg/mL"}, {"measurement": "MIC", "setting": "Staphylococcus aureus", "value": 125, "unit": "µg/mL"}, {"measurement": "MIC", "setting": "Candida albicans", "value": 62.5, "unit": "µg/mL"}]}
{"smiles": "COc1cc(/C=C\\C(=O)c2ccc(NC(=O)CSc3nnc(-c4cccc([N+](=O)[O-])c4)o3)cc2)ccc1O", "values": [{"measurement": "MIC", "setting": "Aspergillus niger", "value": 250, "unit": "µg/mL"}, {"measurement": "MIC", "setting": "Escherichia coli", "value": 31.2, "unit": "µg/mL"}, {"measurement": "MIC", "setting": "Pseudomonas aeruginosa", "value": 62.5, "unit": "µg/mL"}, {"measurement": "MIC", "setting": "Enterococcus faecalis", "value": 62.5, "unit": "µg/mL"}, {"measurement": "MIC", "setting": "Staphylococcus aureus", "value": 62.5, "unit": "µg/mL"}, {"measurement": "MIC", "setting": "Candida albicans", "value": 250, "unit": "µg/mL"}]}
{"smiles": "O=C(CSc1nnc(-c2cccc([N+](=O)[O-])c2)o1)Nc1ccc(C(=O)/C=C\\c2ccc([N+](=O)[O-])cc2)cc1", "values": [{"measurement": "MIC", "setting": "Aspergillus niger", "value": 250, "unit": "µg/mL"}, {"measurement": "MIC", "setting": "Escherichia coli", "value": 31.2, "unit": "µg/mL"}, {"measurement": "MIC", "setting": "Pseudomonas aeruginosa", "value": 62.5, "unit": "µg/mL"}, {"measurement": "MIC", "setting": "Enterococcus faecalis", "value": 62.5, "unit": "µg/mL"}, {"measurement": "MIC", "setting": "Staphylococcus aureus", "value": 62.5, "unit": "µg/mL"}, {"measurement": "MIC", "setting": "Candida albicans", "value": 250, "unit": "µg/mL"}]}
{"smiles": "O=C(CSc1nnc(-c2cccc([N+](=O)[O-])c2)o1)Nc1ccc(C(=O)/C=C\\c2ccc(Br)cc2)cc1", "values": [{"measurement": "MIC", "setting": "Aspergillus niger", "value": 250, "unit": "µg/mL"}, {"measurement": "MIC", "setting": "Escherichia coli", "value": 62.5, "unit": "µg/mL"}, {"measurement": "MIC", "setting": "Pseudomonas aeruginosa", "value": 62.5, "unit": "µg/mL"}, {"measurement": "MIC", "setting": "Enterococcus faecalis", "value": 62.5, "unit": "µg/mL"}, {"measurement": "MIC", "setting": "Staphylococcus aureus", "value": 62.5, "unit": "µg/mL"}, {"measurement": "MIC", "setting": "Candida albicans", "value": 250, "unit": "µg/mL"}]}
{"smiles": "COc1ccc(/C=C\\C(=O)c2ccc(NC(=O)CSc3nnc(-c4cccc([N+](=O)[O-])c4)o3)cc2)cc1OC", "values": [{"measurement": "MIC", "setting": "Aspergillus niger", "value": 500, "unit": "µg/mL"}, {"measurement": "MIC", "setting": "Escherichia coli", "value": 62.5, "unit": "µg/mL"}, {"measurement": "MIC", "setting": "Pseudomonas aeruginosa", "value": 62.5, "unit": "µg/mL"}, {"measurement": "MIC", "setting": "Enterococcus faecalis", "value": 31.2, "unit": "µg/mL"}, {"measurement": "MIC", "setting": "Staphylococcus aureus", "value": 62.5, "unit": "µg/mL"}, {"measurement": "MIC", "setting": "Candida albicans", "value": 500, "unit": "µg/mL"}]}
{"smiles": "O=C(CSc1nnc(-c2cccc([N+](=O)[O-])c2)o1)Nc1ccc(C(=O)/C=C\\c2ccccc2[N+](=O)[O-])cc1", "values": [{"measurement": "MIC", "setting": "Aspergillus niger", "value": 250, "unit": "µg/mL"}, {"measurement": "MIC", "setting": "Escherichia coli", "value": 62.5, "unit": "µg/mL"}, {"measurement": "MIC", "setting": "Pseudomonas aeruginosa", "value": 62.5, "unit": "µg/mL"}, {"measurement": "MIC", "setting": "Enterococcus faecalis", "value": 125, "unit": "µg/mL"}, {"measurement": "MIC", "setting": "Staphylococcus aureus", "value": 125, "unit": "µg/mL"}, {"measurement": "MIC", "setting": "Candida albicans", "value": 250, "unit": "µg/mL"}]}
{"smiles": "O=C(CSc1nnc(-c2cccc([N+](=O)[O-])c2)o1)Nc1ccc(C(=O)/C=C\\c2ccccc2)cc1", "values": [{"measurement": "MIC", "setting": "Aspergillus niger", "value": 125, "unit": "µg/mL"}, {"measurement": "MIC", "setting": "Escherichia coli", "value": 31.2, "unit": "µg/mL"}, {"measurement": "MIC", "setting": "Pseudomonas aeruginosa", "value": 62.5, "unit": "µg/mL"}, {"measurement": "MIC", "setting": "Enterococcus faecalis", "value": 31.2, "unit": "µg/mL"}, {"measurement": "MIC", "setting": "Staphylococcus aureus", "value": 31.2, "unit": "µg/mL"}, {"measurement": "MIC", "setting": "Candida albicans", "value": 250, "unit": "µg/mL"}]}
{"smiles": "COc1cc(/C=C\\C(=O)c2ccc(NC(=O)CSc3nnc(-c4cccc([N+](=O)[O-])c4)o3)cc2)cc(OC)c1OC", "values": [{"measurement": "MIC", "setting": "Aspergillus niger", "value": 125, "unit": "µg/mL"}, {"measurement": "MIC", "setting": "Escherichia coli", "value": 62.5, "unit": "µg/mL"}, {"measurement": "MIC", "setting": "Pseudomonas aeruginosa", "value": 62.5, "unit": "µg/mL"}, {"measurement": "MIC", "setting": "Enterococcus faecalis", "value": 62.5, "unit": "µg/mL"}, {"measurement": "MIC", "setting": "Staphylococcus aureus", "value": 62.5, "unit": "µg/mL"}, {"measurement": "MIC", "setting": "Candida albicans", "value": 250, "unit": "µg/mL"}]}
{"smiles": "O=C(O)c1cn(C2CC2)c2cc(N3CCNCC3)c(F)cc2c1=O", "note": "[CIPROFLOXACIN]", "values": [{"measurement": "MIC", "setting": "Escherichia coli", "value": 125, "unit": "µg/mL"}, {"measurement": "MIC", "setting": "Pseudomonas aeruginosa", "value": 125, "unit": "µg/mL"}, {"measurement": "MIC", "setting": "Enterococcus faecalis", "value": 125, "unit": "µg/mL"}, {"measurement": "MIC", "setting": "Staphylococcus aureus", "value": 62.5, "unit": "µg/mL"}]}
{"smiles": "OC(Cn1cncn1)(Cn1cncn1)c1ccc(F)cc1F", "note": "[FLUCONAZOLE]", "values": [{"measurement": "MIC", "setting": "Aspergillus niger", "value": 62.5, "unit": "µg/mL"}, {"measurement": "MIC", "setting": "Candida albicans", "value": 125, "unit": "µg/mL"}]}
